Laboratory results reported in EP0596929B1, “AMIDE DERIVATIVES OF ANTIBIOTIC A 40926” (GRUPPO LEPETIT S.p.A., priority 1991, dated 1993).

Tested on: highly glycopeptide-resistant enterococci
Settings: summary of Table III

Molecule	in vitro activity against highly glycopeptide-resistant enterococci (in words)
CN[C@H](CC(C)C)C(=O)N[C@H]1C(=O)N[C@@H](CC(N)=O)C(=O)N[C@H]2C(=O)N[C@H]3C(=O)N[C@H](C(=O)N[C@H](C(=O)O)c4cc(O)cc(O)c4-c4cc3ccc4O)[C@H](O)c3ccc(c(Cl)c3)Oc3cc2cc(c3O[C@@H]2O[C@H](CO)[C@@H](O)[C@H](O)[C@H]2O[C@H]2C[C@](C)(N)[C@H](O)[C@H](C)O2)Oc2ccc(cc2Cl)[C@H]1O [vancomycin]	highly resistant
Teicoplanin	highly resistant
